Each structure is given as a SMILES string.

Assay [1] concerns the target T1, PP_3839 (adhP) gene product; calA-II (coniferyl alcohol dehydrogenase) (Pseudomonas putida, UniProt Q88G86).
T1 construct: whole cells or soluble extract
The assay is described as follows: soluble cell extract, absorbance at […] nm. The class given is biochemical. The settings on record: 0.5 mM NAD+, 1 mM coniferyl alcohol, 33 mM sodium phosphate pH 7, 30 °C.

The target of assay [2] is T1, PP_3839 (adhP) gene product; calA-II (coniferyl alcohol dehydrogenase). The assay is described as follows: soluble cell extract, absorbance at […] nm; also whole-cell HPLC. In kind it is biochemical. The following applies: 1 mM substrate, 0.5 mM NAD+, 33 mM sodium phosphate pH 7, 30 °C.

T1 sequence (Q88G86 1-336): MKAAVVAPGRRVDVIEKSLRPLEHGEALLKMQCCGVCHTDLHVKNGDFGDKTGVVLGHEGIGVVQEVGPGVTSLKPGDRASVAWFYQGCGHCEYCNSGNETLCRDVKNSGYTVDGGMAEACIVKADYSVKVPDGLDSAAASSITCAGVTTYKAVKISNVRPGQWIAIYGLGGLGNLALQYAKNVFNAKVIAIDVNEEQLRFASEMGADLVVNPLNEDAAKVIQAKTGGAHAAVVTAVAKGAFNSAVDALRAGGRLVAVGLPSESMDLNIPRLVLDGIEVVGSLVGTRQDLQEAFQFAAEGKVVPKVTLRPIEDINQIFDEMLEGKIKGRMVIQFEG

On to `NC(=O)c1ccc[n+]([C@@H]2O[C@H](COP(=O)(O)OP(=O)(O)OC[C@H]3O[C@@H](n4cnc5c(N)ncnc54)[C@H](O)[C@@H]3O)[C@@H](O)[C@H]2O)c1` [NAD^+], for which the “soluble cell extract, absorbance at 365 nm” value in assay [1] is “coniferyl alcohol was rapidly oxidized in the presence of NAD^+”.
Regarding `COc1cc(/C=C/CO)ccc1O` [coniferyl alcohol], the “soluble cell extract, absorbance at 365 nm; also whole-cell HPLC” value in assay [2] is given as “coniferyl alcohol was rapidly oxidized in the presence of NAD^+”.

Source of the values: paper PMC7054097, “Vanillin Production in Pseudomonas: Whole-Genome Sequencing of Pseudomonas sp. Strain 9.1 and Reannotation of Pseudomonas putida CalA as a Vanillin Reductase” (Applied and Environmental Microbiology, 2020).
